Measurements as given in patent US11491162B2, “Combination of quinoline-4-carboxamides and benzonaphthyridine derivatives as antimalarial drug combination” (Merck Patent GmbH, priority 2018, dated 2022).
Structures can show the parent of a compound that is named as a salt.

Columns and labels:
[1] = test system: P. falciparum Pf3D7^0087/N9; experiment: In vivo SCID mouse model, oral therapeutic efficacy; set-up: species or system Plasmodium falciparum; details: for % control: day 7; for Activity: day 7 vs untreated control
Experimental: Compound efficacy was assessed against the Plasmodium falciparum strain Pf3D7^0087/N9 in vivo. Mice are infected intravenously with parasitized red blood cells on day 0. Experimental mice are generally treated at day 3, 4, 5, and 6 post-infection with an oral dose of the compound (single or 4-day oral dosing regimen) and are compared to an infected control group for reduction in parasitemia on day 7 (Maria Belen Jimenez-Díaz, Teresa Mulet, Sara Viera, Vanessa Gomez, Helen Garuti, Javier Ibanez, Angela Alvarez-Doval, Leonard D. Shultz, Antonio Martínez, Domingo Gargallo-Viola, and Inigo Angulo-Barturen, Improved Murine Model of Malaria Using Plasmodium falciparum Competent Strains and Non-Myelodepleted NOD-scid IL2Rgammanull Mice Engrafted with Human Erythrocytes, Antimicrob Agents Chemother. 2009, 53:4533).
PYRO and M1 were solubilized in a vehicle consisting of 70% Tween-80 and 30% ethanol, followed by a 10-fold dilution in H2O.

P-gp = molecular target: T1, P-gp (Homo sapiens, UniProt P08183); experiment: Inhibition of Pgp-mediated efflux of M1 in Caco-2 monolayer; assay type: cell-based; details: M1 as substrate
T1 construct: In Caco-2 monolayer cells, M1 is effluxed by P-gp transporters with a ratio of 18.2; endogenous in cells; host or cells: Caco-2 cells, differentiated monolayers on polycarbonate filter inserts
T1 sequence (P08183 whole entry): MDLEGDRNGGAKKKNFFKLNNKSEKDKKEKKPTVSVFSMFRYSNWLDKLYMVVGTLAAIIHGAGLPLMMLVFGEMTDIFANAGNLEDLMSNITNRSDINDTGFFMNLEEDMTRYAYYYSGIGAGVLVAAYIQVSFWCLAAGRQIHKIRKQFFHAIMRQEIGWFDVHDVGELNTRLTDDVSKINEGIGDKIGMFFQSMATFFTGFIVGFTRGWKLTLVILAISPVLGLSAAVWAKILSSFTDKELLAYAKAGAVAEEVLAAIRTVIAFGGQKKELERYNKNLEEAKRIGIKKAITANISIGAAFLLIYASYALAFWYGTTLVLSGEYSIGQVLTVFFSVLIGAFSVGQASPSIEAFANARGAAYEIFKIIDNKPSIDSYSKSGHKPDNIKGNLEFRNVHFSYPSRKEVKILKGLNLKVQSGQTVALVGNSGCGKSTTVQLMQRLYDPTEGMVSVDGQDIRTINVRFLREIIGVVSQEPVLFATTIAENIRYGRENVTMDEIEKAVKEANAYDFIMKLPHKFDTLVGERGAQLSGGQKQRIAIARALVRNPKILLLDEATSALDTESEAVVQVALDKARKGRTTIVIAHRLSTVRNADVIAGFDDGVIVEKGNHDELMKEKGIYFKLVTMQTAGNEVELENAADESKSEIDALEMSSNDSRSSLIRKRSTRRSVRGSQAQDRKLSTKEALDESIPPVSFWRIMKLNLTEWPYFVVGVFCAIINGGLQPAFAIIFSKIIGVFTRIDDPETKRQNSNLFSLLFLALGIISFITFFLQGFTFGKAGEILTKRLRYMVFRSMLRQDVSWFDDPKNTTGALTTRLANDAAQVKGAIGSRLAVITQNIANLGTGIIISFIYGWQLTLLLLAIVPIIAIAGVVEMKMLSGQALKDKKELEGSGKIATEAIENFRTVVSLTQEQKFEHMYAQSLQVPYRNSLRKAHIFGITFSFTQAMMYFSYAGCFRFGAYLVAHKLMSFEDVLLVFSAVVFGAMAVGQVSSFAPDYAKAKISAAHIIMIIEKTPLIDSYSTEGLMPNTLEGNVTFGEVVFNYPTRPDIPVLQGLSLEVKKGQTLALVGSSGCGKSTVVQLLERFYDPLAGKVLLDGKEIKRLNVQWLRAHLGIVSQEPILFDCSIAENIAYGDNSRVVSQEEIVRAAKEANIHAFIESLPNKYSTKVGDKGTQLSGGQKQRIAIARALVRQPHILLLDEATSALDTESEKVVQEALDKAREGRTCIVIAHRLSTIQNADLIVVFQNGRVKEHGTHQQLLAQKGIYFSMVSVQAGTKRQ

[2] = PYRO 4 × 1 MG/KG oral, SCID mice, Table 2
[3] = PYRO 4 × 3 MG/KG oral, SCID mice, Table 2
[4] = PYRO 4 × 9 MG/KG oral, SCID mice, Table 2
[5] = Table 4 entry 3: M1 0 mg/kg, PYRO 4 × 3 mg/kg, oral
[6] = Table 4 entry 3: M1 0 mg/kg, PYRO 4 × 3 mg/kg, oral, LLQ = <0.01% parasitemia
[7] = Table 4 entry 5: M1 0 mg/kg, PYRO 4 × 9 mg/kg, oral
[8] = Table 4 entry 5: M1 0 mg/kg, PYRO 4 × 9 mg/kg, oral, LLQ = <0.01% parasitemia
[9] = Table 4 entry 7: M1 0 mg/kg, PYRO 4 × 30 mg/kg, oral
[10] = Table 4 entry 7: M1 0 mg/kg, PYRO 4 × 30 mg/kg, oral, LLQ = <0.01% parasitemia

SMILES: COc1ccc2nc3cc(Cl)ccc3c(Nc3cc(CN4CCCC4)c(O)c(CN4CCCC4)c3)c2n1 [PYRO, pyronaridine tetraphosphate salt]
- % PARASITEMIA day 3 post infection [1, 2]: 0.63%
- % PARASITEMIA day 4 post infection [1, 2]: 1.21%
- % PARASITEMIA day 5 post infection [1, 2]: 3.14%
- % PARASITEMIA day 6 post infection [1, 2]: 4.53%
- % PARASITEMIA day 7 post infection [1, 2]: 7.55%
- % control ([1]; PYRO 4 × 1 MG/KG oral, SCID mice): 82.6%
- Activity ([1]; PYRO 4 × 1 MG/KG oral, SCID mice, 1 mg/kg): 17.4%
- Activity ([1]; PYRO 4 × 1 MG/KG oral, SCID mice, listed as pyronaridine, 1 mg/kg): 17%
- % PARASITEMIA day 3 post infection [1, 3]: 0.71%
- % PARASITEMIA day 4 post infection [1, 3]: 1%
- % PARASITEMIA day 5 post infection [1, 3]: 0.44%
- % PARASITEMIA day 6 post infection [1, 3]: 0.25%
- % PARASITEMIA day 7 post infection [1, 3]: 0.04%
- % control ([1]; PYRO 4 × 3 MG/KG oral, SCID mice): 0.4%
- Activity ([1]; PYRO 4 × 3 MG/KG oral, SCID mice, 3 mg/kg): 99.6%
- Activity ([1]; PYRO 4 × 3 MG/KG oral, SCID mice, listed as pyronaridine, 3 mg/kg): 99.6%
- % PARASITEMIA day 3 post infection [1, 4]: 0.7%
- % PARASITEMIA day 4 post infection [1, 4]: 0.28%
- % PARASITEMIA day 5 post infection [1, 4]: 0.15%
- % PARASITEMIA day 6 post infection [1, 4]: 0.063%
- % PARASITEMIA day 7 post infection ([1]; PYRO 4 × 9 MG/KG oral, SCID mice, Table 2, LLQ = <0.01% parasitemia, 9 mg/kg): <LLQ
- % PARASITEMIA day 7 post infection ([1]; PYRO 4 × 9 MG/KG oral, SCID mice, Table 2, LLQ = <0.01% parasitemia, listed as pyronaridine, 9 mg/kg): parasite-free
- % control ([1]; PYRO 4 × 9 MG/KG oral, SCID mice, LLQ = <0.01% parasitemia): <LLQ
- Activity ([1]; PYRO 4 × 9 MG/KG oral, SCID mice, 9 mg/kg): 100%
- Activity ([1]; PYRO 4 × 9 MG/KG oral, SCID mice, listed as pyronaridine, 9 mg/kg): > 99.9%
- % PARASITEMIA day 3 post infection [1, 5]: 1.16%
- % PARASITEMIA day 4 post infection [1, 5]: 0.67%
- % PARASITEMIA day 5 post infection [1, 5]: 0.08%
- % PARASITEMIA day 6 post infection [1, 5]: 0.01%
- % PARASITEMIA day 7 post infection [1, 6]: <LLQ
- % PARASITEMIA day 10 post infection [1, 6]: <LLQ
- % PARASITEMIA day 3 post infection [1, 7]: 1.09%
- % PARASITEMIA day 4 post infection [1, 7]: 0.34%
- % PARASITEMIA day 5 post infection [1, 7]: 0.05%
- % PARASITEMIA day 6 post infection [1, 8]: <LLQ
- % PARASITEMIA day 7 post infection [1, 8]: <LLQ
- % PARASITEMIA day 10 post infection [1, 8]: <LLQ
- % PARASITEMIA day 3 post infection [1, 9]: 1.13%
- % PARASITEMIA day 4 post infection [1, 9]: 0.14%
- % PARASITEMIA day 5 post infection [1, 9]: 0.02%
- % PARASITEMIA day 6 post infection [1, 9]: 0.01%
- % PARASITEMIA day 7 post infection [1, 10]: <LLQ
- % PARASITEMIA day 10 post infection [1, 10]: <LLQ
- concentrations at which PYRO inhibited Pgp-mediated efflux of M1 (P-gp): greater than 10 μM
